What was measured:
Ba/F3-Syk cells = target: T1, Ba/F3-Syk cells (Homo sapiens, UniProt P43405); experiment: Ba/F3 Proliferation Assay, Ba/F3-Syk cells (Resazurin); assay type: cell-based; settings: 48-hour incubation
T1 construct: fused on or other part: Possible but unprinted fusion partner: TEL (ETV6), the usual partner for Ba/F3 lines transformed by Syk; Nothing on a partner is printed
Description: (§1) Ba/F3-Syk and Ba/F3-WT (wild type) cells were maintained at ≤1×10^6 cell/mL in RPMI (Life Technologies) with 10% FBS at 37° C. and 5% CO2 for a maximum of four weeks. Ba/F3-WT additionally contained 2 ng/mL mIL-3 (R&D Systems) to induce cellular growth. Cells were counted and dispensed at 5000 cells/well using a Multidrop Liquid Dispenser in a volume of 45 μL into black 384-well TC treated plates (Greiner) and incubated for four hours in complete media (+mIL-3 for Ba/F3-WT). Compounds were serially diluted in 100% DMSO, prior to an intermediate dilution in RPMI media. 5 μL of compound (0.4% final DMSO) was added to the cells, followed by a 48-hour incubation period. 5 μL of Resazurin (60 μM final) was then added and cells were incubated at 37° C. for three hours, before fluorescence (λex530/λem585) was measured using an Ensight Multimode Plate Reader (Perkin Elmer).

[1] = test system: Ba/F3-WT (wild type) cells; experiment: Ba/F3 Proliferation Assay, Ba/F3-WT (wild type) cells with mIL-3 (Resazurin); assay type: cell-based; settings: Ba/F3-WT cells +mIL-3, 48-hour incubation
Description: as §1

EC50 (Ba/F3-Syk cells) [nM]	EC50 [1] [nM]	EC50 ([1]; Mus musculus, BaF3, 48 h) [nM]	Molecule
129	–	2560	Cn1cc(-c2cc3ncccc3c(OC[C@@H]3CN[C@H]4CCC[C@H]4O3)n2)cn1 (racemic) [Compound 2.53, 5-{[rel-(2R,4aR,7aS)-octahydrocyclopenta[b][1,4]oxazin-2-yl]methoxy}-7-(1-methyl-1H-pyrazol-4-yl)-1,6-naphthyridine]
36	–	1600	C[C@@H]1O[C@@H](COc2nc(-c3cnn(C(C)(C)C)c3)cc3ncccc23)CN[C@@H]1C (racemic) [Compound 2.80, 7-(1-tert-butyl-1H-pyrazol-4-yl)-5-{[rel-(2S,5S,6R)-5,6-dimethylmorpholin-2-yl]methoxy}-1,6-naphthyridine]
288	–	1580	Cn1cc(-c2cc3ncccc3c(OC[C@@H]3CN[C@@H]4CCC[C@@H]4O3)n2)cn1 (relative stereo) [Compound 2.54, 5-{[rel-(2S,4aR,7aS)-octahydrocyclopenta[b][1,4]oxazin-2-yl]methoxy}-7-(1-methyl-1H-pyrazol-4-yl)-1,6-naphthyridine]
1330	–	> 10000	Cn1ccc(-c2cc3ncccc3c(OC[C@@H]3CN[C@@H]4C[C@@H]4O3)n2)c1 (relative stereo) [Compound 2.71, 7-(1-methyl-1H-pyrrol-3-yl)-5-{[(rel-1S,3S,6R)-2-oxa-5-azabicyclo[4.1.0]heptan-3-yl]methoxy}-1,6-naphthyridine]
73.2	–	2070	C[C@@H]1O[C@H](COc2nc(-c3cnn(C(C)(C)C)c3)cc3ncccc23)CN[C@@H]1C (relative stereo) [Compound 2.81, 7-(1-tert-butyl-1H-pyrazol-4-yl)-5-{[rel-(2S,5R,6S)-5,6-dimethylmorpholin-2-yl]methoxy}-1,6-naphthyridine]
59.3	–	–	CC(C)(C)n1cc(-c2cc3ncccc3c(OC[C@@H]3CN[C@H]4CCC[C@H]4O3)n2)cn1 (relative stereo) [Compound 2.85, 5-{[rel-(2S,4aS,7aR)-octahydrocyclopenta[b][1,4]oxazin-2-yl]methoxy}-7-(1-tert-butyl-1H-pyrazol-4-yl)-1,6-naphthyridine]
54.6	–	> 1000	CC(C)(C)n1cc(-c2cc3ncccc3c(O[C@@H]3CC[C@@H]4NCCO[C@@H]43)n2)cn1 (relative stereo) [Compound 2.90, 5-[rel-(4aS,7R,7aS)-octahydrocyclopenta[b][1,4]oxazin-7-yloxy]-7-(1-tert-butyl-1H-pyrazol-4-yl)-1,6-naphthyridine]
51.8	–	1040	CC(C)(C)n1cc(-c2cc3ncccc3c(O[C@H]3CC[C@@H]4NCCO[C@@H]43)n2)cn1 (relative stereo) [Compound 2.91, 5-[rel-(4aS,7S,7aS)-octahydrocyclopenta[b][1,4]oxazin-7-yloxy]-7-(1-tert-butyl-1H-pyrazol-4-yl)-1,6-naphthyridine]
347	4240	–	CC(C)(C)n1cc(-c2cc3ncccc3c(OC[C@H]3OC[C@@H]4C[C@H]3N4)n2)cn1 (relative stereo) [Compound 2.97, 7-(1-tert-butyl-1H-pyrazol-4-yl)-5-{[rel-(1R,2S,5S)-3-oxa-6-azabicyclo[3.1.1]heptan-2-yl]methoxy}-1,6-naphthyridine]
1940	–	> 10000	CC(C)(C)n1cc(-c2cc3ncccc3c(OC[C@H]3O[C@H]4CCN[C@@H]3C4)n2)cn1 (single isomer, unassigned) [Compound 13.11]
74.4	> 5000	–	CC(C)(C)n1cc(-c2cc3ncccc3c(OC[C@H]3O[C@H]4CCN[C@@H]3C4)n2)cn1 (single isomer, unassigned) [Compound 13.12]
145	–	–	CC(C)(C)n1cc(-c2cc3ncccc3c(OC[C@@H]3CN[C@H]4CCC[C@H]4O3)n2)cn1 (stereo in doubt) [Compound 2.94, 5-{[(2S,4aS,7aR)-octahydrocyclopenta[b][1,4]oxazin-2-yl]methoxy}-7-(1-tert-butyl-1H-pyrazol-4-yl)-1,6-naphthyridine]
22.1	–	1850	CC(C)(C)n1cc(-c2cc3ncccc3c(OC[C@H]3CN[C@@H]4CCC[C@@H]4O3)n2)cn1 (stereo in doubt) [Compound 2.95, 5-{[(2R,4aR,7aS)-octahydrocyclopenta[b][1,4]oxazin-2-yl]methoxy}-7-(1-tert-butyl-1H-pyrazol-4-yl)-1,6-naphthyridine]
2.4	–	930	Cc1ccnc2cc(-c3cnn(C(C)C)c3)cc(OC[C@@H]3CNCC(C)(C)O3)c12 (stereo in doubt) [Compound 14.7, 5-[(6,6-dimethylmorpholin-2-yl)methoxy]-4-methyl-7-[1-(propan-2-yl)-1H-pyrazol-4-yl]quinoline]
1170	–	> 10000	C=Cc1cnc2cc(-c3cnn(C(C)(C)C)c3)nc(OC[C@@H]3CNCC(C)(C)O3)c2c1 (stereo in doubt) [Compound 14.8, 7-(1-tert-butyl-1H-pyrazol-4-yl)-5-[(6,6-dimethylmorpholin-2-yl)methoxy]-3-ethenyl-1,6-naphthyridine]
1450	–	> 10000	Cn1cccc1-c1cc2ncccc2c(OC[C@@H]2CNCCO2)n1 [Compound 2.38, 7-(1-methyl-1H-pyrrol-2-yl)-5-{[(2S)-morpholin-2-yl]methoxy}-1,6-naphthyridine]
243	–	1700	Clc1cc(-c2cc3ncccc3c(OC[C@@H]3CNCCO3)n2)cs1 [Compound 2.39, 7-(5-chlorothiophen-3-yl)-5-{[(2S)-morpholin-2-yl]methoxy}-1,6-naphthyridine]

Continued, molecule first:

Molecule	EC50 (Ba/F3-Syk cells) [nM]	EC50 [1] [nM]	EC50 ([1]; Mus musculus, BaF3, 48 h) [nM]
5-{[(2R)-6,6-dimethylmorpholin-2-yllmethoxy}-7-[1-(3-methyloxolan-3-yl)-1H-pyrazol-4-yl]-1,6-naphthyridine [Compound 10.13]	90.9	3210	–
7-(1-methyl-1H-pyrrol~3-yl)-5-{[(2S)-2-methylmorpholin-2-yl]methoxy}-1,6-naphthyridine [Compound 10.7]	274	1200	–
7-(1-tert-butyl-1H-pyrazol-4-yl)-5-{[(2R)-2-ethylmorpholin-2-yl]methoxy}-1,6-naphthyridine [Compound 10.15]	92.2	1680	–
CC(C)(C)n1cc(-c2cc(OC[C@@H]3CNCCO3)c3cccnc3c2)cn1 [Compound 1, 7-(1-tert-butyl-1H-pyrazol-4-yl)-5-{[(2S)-morpholin-2-yl]methoxy}quinoline]	44.2	–	4670
Cn1cc(-c2cc(OC[C@@H]3CNCCO3)c3cccnc3c2)cn1 [Compound 2, 7-(1-methyl-1H-pyrazol-4-yl)-5-{[(2S)-morpholin-2-yl]methoxy}quinoline]	166	–	2430
Cc1noc(C)c1-c1cc2ncccc2c(OC[C@@H]2CNCCO2)n1 [Compound 2.14, 7-(3,5-dimethyl-1,2-oxazol-4-yl)-5-{[(2S)-morpholin-2-yl]methoxy}-1,6-naphthyridine]	3620	–	4830
c1cnc2cc(-c3ccn[nH]3)nc(OC[C@@H]3CNCCO3)c2c1 [Compound 2.28, 5-{[(2S)-morpholin-2-yl]methoxy}-7-(1H-pyrazol-5-yl)-1,6-naphthyridine]	734	–	> 10000
c1cnc2cc(-c3cncs3)nc(OC[C@@H]3CNCCO3)c2c1 [Compound 2.29, 5-{[(2S)-morpholin-2-yl]methoxy}-7-(1,3-thiazol-5-yl)-1,6-naphthyridine]	1020	–	> 10000
Cc1ncc(-c2cc3ncccc3c(OC[C@@H]3CNCCO3)n2)s1 [Compound 2.30, 7-(2-methyl-1,3-thiazol-5-yl)-5-{[(2S)-morpholin-2-yl]methoxy}-1,6-naphthyridine]	206	–	6970
Cn1ccc(-c2cc3ncccc3c(OC[C@@H]3CNCCO3)n2)n1 [Compound 2.31, 7-(1-methyl-1H-pyrazol-3-yl)-5-{[(2S)-morpholin-2-yl]methoxy}-1,6-naphthyridine]	1740	–	> 10000
Clc1ccc(-c2cc3ncccc3c(OC[C@@H]3CNCCO3)n2)s1 [Compound 2.33, 7-(5-chlorothiophen-2-yl)-5-{[(2S)-morpholin-2-yl]methoxy}-1,6-naphthyridine]	390	–	1590
Clc1csc(-c2cc3ncccc3c(OC[C@@H]3CNCCO3)n2)c1 [Compound 2.34, 7-(4-chlorothiophen-2-yl)-5-{[(2S)-morpholin-2-yl]methoxy}-1,6-naphthyridine]	394	–	1560
Cc1cc(-c2cc3ncccc3c(OC[C@@H]3CNCCO3)n2)sc1Cl [Compound 2.35, 7-(5-chloro-4-methylthiophen-2-yl)-5-{[(2S)-morpholin-2-yl]methoxy}-1,6-naphthyridine]	667	–	619
CCc1ccc(-c2cc3ncccc3c(OC[C@@H]3CNCCO3)n2)s1 [Compound 2.36, 7-(5-ethylthiophen-2-yl)-5-{[(2S)-morpholin-2-yl]methoxy}-1,6-naphthyridine]	279	–	2050
Cc1cc(-c2cc3ncccc3c(OC[C@@H]3CNCCO3)n2)c(C)s1 [Compound 2.37, 7-(2,5-dimethylthiophen-3-yl)-5-{[(2S)-morpholin-2-yl]methoxy}-1,6-naphthyridine]	1230	–	2830
